Consider 1 compound from patent US11612601B1, “Targeting epidermal growth factor to treat vascular calcification” (THE FLORIDA INTERNATIONAL UNIVERSITY BOARD OF TRUSTEES, priority 2022, dated 2023).

Assay [1] deals with CKD mice. Nature of the assay: Aorta immunofluorescence and subcellular (cytosolic) fractionation in CKD mice. The class given is in vivo, mouse. Here is the method:
8-week-old wild type C57BL/6J mice (n=20, female) received the adenine-supplemented diet for 6 weeks to induce CKD, followed by two additional weeks of the diet containing 1.8% phosphate and 0.2% adenine to induce medial calcinosis. Mice were split into two groups (10 per group). The first group received daily tyrphostin AG1478 (10 mg/kg mouse), while the other group received vehicle (1% w/v, carboxymethylcellulose sodium salt). At study endpoint, the animals were euthanized, and the aortas were resected.
A subcellular protein fractionation kit for tissue (Thermofisher, 87790) was used to isolate cellular cytosolic fraction from the resected aortas, using the manufacturer's protocol. Briefly, the tissues were minced and homogenized using a grinder. The samples were then incubated in a cytoplasmic extraction buffer for 10 min at 4° C., followed by centrifugation at 1000×g for 5 min. The supernatants yielded the cytosolic fraction. To obtain sufficient protein for analyses, two aortas were pooled per data point.
(§1) VSMCs, osteoblasts, isolated EVs (either from cells or mouse aortas), and matrix vesicles (from osteoblasts) were lysed in RIPA lysis and extraction buffer supplemented with protease inhibitor. After adding Laemmli SDS-sample buffer (1:4 v/v, Boston BioProducts, BP-110R) to each lysate, the samples were denatured at 100° C. for 10 min, loaded into 7.5-12% 1-mm SDS-PAGE gel (15 to 20 μg protein per lane), and run at 170 V. The proteins were then transferred to Trans-Blot turbo nitrocellulose membranes (BIO-RAD, 1704158) at 25 V for 7 min.
To quantify the total protein, the membranes were stained using 2% w/v Ponceau stain (Alfa Aesar, AAJ6074409) for 20 min, followed by one wash with 5% acetic acid and milliQ water for 5 min. After imaging, the intensity of each lane was measured in ImageJ for total protein normalization. Membranes were blocked with 5% w/v bovine serum albumin (HyClone, SH30574.01) in TBS-Tween (1×) for 1 hour. […] The protein bands were visualized with Odyssey CLx scanner (Li-Cor), and quantified using Image Studio Lite software (Li-Cor). […]

For assay [2], the system named is CKD mice. The experiment in a line: EVs isolated from mouse aortas: CAV1 immunoblot and TNAP activity. The format is in vivo. Particulars: CKD mice treated vs CKD. The procedure:
Immediately after scanning, the tissue was incubated in a digestive solution of sucrose (0.25 M, Sigma, S7903), NaCl (0.12 M, Fisher Chemical, BP358), KCl (0.01 M, Fisher Chemical, P217), Tris hydrochloride (0.02 M, Fisher Chemical, BP153), and collagenase (600 U/mL, Worthington Biochemical, LS004174) for 2 hours at 37° C. The solution was then centrifuged at 1,000×g for 15 min to remove cell debris and at 33,000×g for 30 min to remove microvesicles. Finally, the supernatants were ultracentrifuged (Beckman Coulter, Optima MAX-TL) at 100,000×g for 1 hour to isolate the EVs of interest. The pellet was suspended in RIPA lysis and extraction buffer (G Biosciences, 786-489) supplemented with pierce protease inhibitor (Thermo Scientific, A32963). To yield sufficient protein concentration for analysis, EVs isolated from 2 to 3 aortas were pooled.
For EV TNAP activity measurement, after ultracentrifugation at 100,000×g for 1 hour, the pellets were re-suspended in 120 μL buffer assay. […]
To quantify the total protein, the membranes were stained using 2% w/v Ponceau stain (Alfa Aesar, AAJ6074409) for 20 min, followed by one wash with 5% acetic acid and milliQ water for 5 min. After imaging, the intensity of each lane was measured in ImageJ for total protein normalization. […] The protein bands were visualized with Odyssey CLx scanner (Li-Cor), and quantified using Image Studio Lite software (Li-Cor).

Assay [3] has as its system Primary human coronary artery vascular smooth muscle cells. The experiment in a line: VSMC extracellular matrix collagen (Sircol soluble collagen assay). The format is cell-based. The conditions noted are these: VSMCs, OS media, 2.5 μM, 28 days; p=0.10. Here is the method: After 28 days of treatment, soluble collagen was extracted from the cultures using acetic acid (0.5 M) through overnight incubation at 4° C. A colorimetric assay, Sircol soluble collagen assay (Biocolor, S1000), measured the total soluble extracellular matrix (ECM) collagen in each group. Samples were prepared and assessed according to the manufacturer's protocol. Results were then normalized to the total protein measured using BCA assay.

Assay [4] shares this test system. The experiment in a line: EVs isolated from VSMC cultures: protein immunoblot and TNAP activity. The format is cell-based. The procedure: To assess the role of EGFR inhibition, tyrphostin AG1478 (Millipore Sigma, T4182) was dissolved in vehicle (DMSO:Methanol, 1:1) and added to OS media to a final concentration of 2.5 μM. An equal volume of vehicle was added to the control and OS groups. It shown that 28 days in OS culture media led to robust calcification by VSMCs; therefore, all cultures (n=3, independent donors, male and female) were treated for 28 days and media were replaced every three days. On days 6, 13, 20, and 27 the media were replaced by an extracellular-vesicle-free (EV-free) media (ultracentrifuged for 15 hours at 100,000×g at 4° C. to remove background EVs common in the serum). After 24 hours, conditioned media were collected on days 7, 14, 21, and 28. Collected media were centrifuged at 1,000×g for 5 min to remove cell debris. EV isolation was performed using ultracentrifugation (Beckman Coulter, Optima MAX-TL) at 100,000×g for 1 hour.
For EV TNAP activity measurement, after ultracentrifugation at 100,000×g for 1 hour, the pellets were re-suspended in 120 μL buffer assay. The assessment was performed using the same assay protocol described for intracellular TNAP activity and the results were normalized to the total protein for each sample. For mice serum TNAP activity, the samples were diluted 1:20 and assessment was performed according to the manufacturer's protocol.
as §1
To quantify the total protein, the membranes were stained using 2% w/v Ponceau stain (Alfa Aesar, AAJ6074409) for 20 min, followed by one wash with 5% acetic acid and milliQ water for 5 min. After imaging, the intensity of each lane was measured in ImageJ for total protein normalization. Membranes were blocked with 5% w/v bovine serum albumin (HyClone, SH30574.01) in TBS-Tween (1×) for 1 hour. The membranes were incubated with primary antibodies of interest, including CAV1 (1:200, Abcam, ab2910), TNAP (1:200, Invitrogen, 702454), EGFR ([…], EMD Millipore, 06-874), CD63 (1:200, Abeam, ab231975), GAPDH (1:100, Abcam, ab181602), and Annexin V (1:200, proteintech, 11060-1-AP) overnight at 4° C. After three washes with TBS-Tween (1×), the membranes were incubated with secondary antibody (1:1000, Li-Cor) for 1 hour, followed by three washes with TBS-Tween (1×). The protein bands were visualized with Odyssey CLx scanner (Li-Cor), and quantified using Image Studio Lite software (Li-Cor).
On the technique in general: In western blotting, separated proteins are transferred to a membrane and probed.

Setting [5] is: treated CKD animals compared to CKD group.

As to `COc1cc2ncnc(Nc3cccc(Cl)c3)c2cc1OC` [AG1478, tyrphostin AG1478], the “CAV1, EGFR, and TNAP immunofluorescence in the aorta” value in assay [1] (qualitative, CKD mice treated, compared to chow-fed controls) is “elevation of all three proteins”. In assay [1] (setting [5]), the “cytosolic CAV1 protein in aorta” value is “higher” and the “cytosolic TNAP protein in aorta” value is reported as “higher”. Also, the “CAV1 protein on EVs isolated from aortas” value in assay [2] (p<0.0001) was “significantly lower”. In addition, the “TNAP activity of EVs isolated from aortas” value in assay [2] (p=0.003) is recorded as “significantly lower”. Besides, the ECM collagen accumulation result in assay [3] is given as “did not affect”. The “level of CD63 on EVs from VSMCs” value in assay [4] (28 days of culture, across in vitro groups, p=0.9) is “preserved”. Also, in assay [4] (OS + 2.5 μM, day 28), the “level of Annexin V on EVs from VSMCs” value is “reduced levels” and the “level of EGFR on EVs from VSMCs” value is listed as “reduced levels”. For the same compound, in assay [4] (OS + 2.5 μM, days 14, 21, 28), the “EV TNAP activity (VSMC cultures)” value is on record as “reduced” and the “release of CAV1-positive EVs by VSMCs” value was “reduced”. For the same compound, in assay [4] (pro-calcific media + 2.5 μM, 14 days, vs control and pro-calcific media), the “CD63 protein within EVs from vascular SMCs” value is on record as “no differences”.
